pEC50: −log10 of the molar value. Like-named read-outs stand apart in the source and are kept apart here.
How the values were obtained:
[1] = tested on: p53 signaling (p53RE-bla HCT-116 cells); test: cells; format: cell-based
[2] = tested on: p53 signaling (p53RE-bla HCT-116 cells); test: cells; format: cell-based; conditions: for pEC50 / Emax: Homo sapiens; for pEC50: HCT-116, 0.5 h; for Emax: HCT-116, read-out: efficacy
[3] = tested on: p53 signaling (p53RE-bla HCT-116 cells); test: cells; format: cell-based; conditions: Homo sapiens; for pEC50: HCT-116; for Emax: HCT-116, read-out: efficacy
[4] = tested on: p53 signaling (p53RE-bla HCT-116 cells)
[5] = tested on: p53 signaling (p53RE-bla HCT-116 cells); remark: listed apart in the source
[6] = tested on: p53 signaling (p53RE-bla HCT-116 cells); test: cells; conditions: Homo sapiens
[7] = tested on: p53 signaling (p53RE-bla HCT-116 cells); test: cells; conditions: Homo sapiens; for pEC50: HCT-116, read-out: p53 activation EC50, HLM
[8] = read-out: p53 activation EC50, RLM
[9] = HCT-116, read-out: p53 activation EC50, RLM
[10] = HCT-116, read-out: p53 activation efficacy

SMILES | p53 activation EC50, No MS [1] | p53 activation Efficacy, No MS [1] | pEC50 [2] | pEC50 [3] | Emax [3] | p53 activation EC50, HLM [5] | Viability EC50, HLM (p53RE-bla HCT-116 cells) | Viability EC50, No MS (p53RE-bla HCT-116 cells) | Viability EC50, RLM (p53RE-bla HCT-116 cells) | Viability Efficacy, HLM (p53RE-bla HCT-116 cells) | Viability Efficacy, No MS (p53RE-bla HCT-116 cells) | Viability Efficacy, RLM (p53RE-bla HCT-116 cells) | pEC50 ([6]; HCT-116) | Emax ([6]; HCT-116, read-out: efficacy) | pEC50 [7] | other results
CCOP(=S)(OCC)O/N=C(\C#N)c1ccccc1 [Phoxim] | inactive | inactive | 5.27 | 5.28 | 42.2% | inactive | inactive | inactive | inactive | inactive | inactive | inactive | 5.35 | 34.4% | 5.66 | Emax [2]: 43.5%; pEC50 [4, 8]: 5.23; pEC50 [6, 9]: 5.52
CCOP(=S)(OCC)OC(Cl)C(Cl)(Cl)Cl (stereo not shown) [Chlorethoxyfos] |  |  | 6.12 | 5.11 |  |  |  |  |  |  |  |  | 4.94 | 35.9% |  | p53 activation EC50 [1]: inactive; p53 activation efficacy [1]: inactive; p53 activation efficacy [4]: 53.0303; pEC50 ([4]; read-out: p53 activation EC50): 4.93; p53 activation EC50 [5]: inactive; Viability EC50 (p53RE-bla HCT-116 cells): inactive; Viability efficacy (p53RE-bla HCT-116 cells): inactive; Emax [6, 10]: 43.1%; Emax [7, 10]: 44%
COP(=S)(OC)SCN1C(=O)c2ccccc2C1=O [Phosmet] | inactive | inactive | 4.73 | 5.09 | 49% | inactive | inactive | inactive | inactive | inactive | inactive | inactive | 4.94 | 52.6% | 5.12 | Emax [2]: 48.2%
COP(N)(=O)SC (stereo not shown) [Methamidophos] | inactive | inactive | 5.22 | 5.01 |  | inactive | inactive | inactive | inactive | inactive | inactive | inactive | 4.94 | 48.9% | 5.69 | pEC50 [4, 8]: 4.86; pEC50 [6, 9]: 4.95
CCOP(=S)(OCC)SCn1nnc2ccccc2c1=O [Azinphos-ethyl] | inactive | inactive | 4.64 | 5.67 |  | inactive | inactive | inactive | inactive | inactive | inactive | inactive | 5.66 | 47.5% | 5.70 | 
CCOP(=S)(OCC)OP(=S)(OCC)OCC [Sulfotepp] | inactive | inactive |  | 4.78 | 42.1% | inactive | inactive | inactive | inactive | inactive | inactive | inactive | 4.85 | 37.4% | 4.67 | EC50 [2]: Inactive
CNP(=O)(OC)Oc1ccc(C(C)(C)C)cc1Cl (stereo not shown) [Crufomate] | inactive | inactive | 6.48 | 5.48 |  | inactive | inactive | inactive | inactive | inactive | inactive | inactive | 5.36 | 66.6% | 5.38 | 

Source: PMC9151520 (Archives of Toxicology, 2022)
